Data taken from patent publication US8785452B2, “Anti-infective compounds” (priority 2008, dated 2014).
Where two headings read alike, the source gives them in different places.

Tested on: M. tuberculosis H37Rv-GFP
Experiment: microbe, parasite or virus in culture
Assay type: cell-based, Mycobacterium tuberculosis
Details: Mycobacterium tuberculosis, H37RV, Macrophage
[1] = read-out: Primary QIM % Inhibition
[2] = read-out: QIM Confirm % Inhibition 20 uM
[3] = confirmation, 20 uM, intracellular, read-out: QIM Confirm % Inhibition 20 uM
[4] = primary screen, 20 μM, intracellular, read-out: Primary QIM % Inhibition

CC(C)CNC(=O)c1cc([N+](=O)[O-])cc([N+](=O)[O-])c1 [IPK 000 046 78]
inhibition at 20 µM [1]: 73.3%
inhibition at 20 µM [2]: 88.9%

CC(NC(=O)c1cc([N+](=O)[O-])cc([N+](=O)[O-])c1)c1ccccc1 (centres unmarked) [IPK 000 046 80]
inhibition at 20 µM [1]: 76.9%
inhibition at 20 µM [2]: 64.6%

O=C(NC1CCCCCC1)c1cc([N+](=O)[O-])cc([N+](=O)[O-])c1 [IPK 000 046 83]
inhibition at 20 µM [1]: 75.8%
inhibition at 20 µM [2]: 61.7%

O=C(c1cc([N+](=O)[O-])cc([N+](=O)[O-])c1)N1CCc2ccccc2C1 [IPK 000 046 86]
inhibition at 20 µM [1]: 26.6%
inhibition at 20 µM [2]: 40.8%

CCCCNC(=O)c1cc([N+](=O)[O-])cc([N+](=O)[O-])c1 [IPK 000 046 87]
inhibition at 20 µM [1]: 74.4%
inhibition at 20 µM [2]: 56.3%

O=C(Nc1ccc(Cl)c(Cl)c1)c1ccco1 [IPK 000 048 49]
inhibition at 20 µM [1]: 84.5%
inhibition at 20 µM [2]: 92.9%

Cc1ccc(NC(=O)c2ccc(CSC3=NCCS3)cc2)c(C)c1 [IPK 000 125 15]
inhibition at 20 µM [3]: 88.7%
inhibition at 20 µM [4]: 87.1%

Cc1ccc(NC(=O)c2ccc(CSc3ccccn3)cc2)c(C)c1 [IPK 000 125 22]
inhibition at 20 µM [3]: 82%
inhibition at 20 µM [4]: 75.4%

Cc1ccc2nc(-c3ccc(NC(=O)CN4CCCC4)cc3)sc2c1 [IPK 000 125 61]
inhibition at 20 µM [3]: 85.8%
inhibition at 20 µM [4]: 44.1%

O=C(CCc1ccccc1)N1CCN(Cc2ccccc2)CC1 [IPK 000 126 73]
inhibition at 20 µM [3]: 60.8%
inhibition at 20 µM [4]: 85.7%

C/C(=N/c1ccc(S(=O)(=O)N2CCOCC2)cc1)Nc1ccc(C(=O)O)c(O)c1 [IPK 000 128 37]
inhibition at 20 µM [3]: 26.5%
inhibition at 20 µM [4]: 43.8%

Cc1ccsc1/C=C1/SC(N2CCCCC2)=NC1=O [IPK 000 129 72]
inhibition at 20 µM [3]: 75.4%
inhibition at 20 µM [4]: 61.8%

Cc1ccn2cc(-c3ccc(F)cc3)nc2c1 [IPK 000 129 91]
inhibition at 20 µM [3]: 38.2%
inhibition at 20 µM [4]: -36%

O=c1c(/C=N/Cc2ccco2)c(NCc2ccco2)nc2ccccn12 [IPK 000 130 26]
inhibition at 20 µM [3]: 29.9%
inhibition at 20 µM [4]: 66.3%

COc1cccc(C(CC(=O)c2ccc(Cl)cc2)C(C#N)C#N)c1 (centres unmarked) [IPK 000 130 54]
inhibition at 20 µM [3]: 65.8%
inhibition at 20 µM [4]: 66.7%

COc1cc2ccccc2cc1C(=O)Nc1nccs1 [IPK 000 133 02]
inhibition at 20 µM [3]: 37.2%
inhibition at 20 µM [4]: -44.8%

O=C(NCCC1=CCCCC1)C(=O)Nc1cccc(F)c1 [IPK 000 133 46]
inhibition at 20 µM [3]: 94.4%
inhibition at 20 µM [4]: 69.6%

CCC1=NN(C(=O)c2ccncc2)C(O)(C(F)(F)F)C1 (centres unmarked) [IPK 000 134 50]
inhibition at 20 µM [3]: 101%
inhibition at 20 µM [4]: 99.7%

CCc1ccc(C2(O)CC(C(F)(F)F)=NN2C(=O)c2ccncc2)cc1 (centres unmarked) [IPK 000 134 51]
inhibition at 20 µM [3]: 102%
inhibition at 20 µM [4]: 90.2%

CS(=O)(=O)c1nc(-c2ccc(Br)cc2)n[nH]1 [IPK 000 134 62]
inhibition at 20 µM [3]: 25.5%
inhibition at 20 µM [4]: -56.1%

CS(=O)(=O)c1nc(-c2ccc(Cl)cc2)n[nH]1 [IPK 000 134 63]
inhibition at 20 µM [3]: 12.6%
inhibition at 20 µM [4]: -18.3%

O=C(c1ccc([N+](=O)[O-])o1)N1CCN(Cc2ccccc2)CC1 [IPK 000 135 28]
inhibition at 20 µM [3]: 26.6%
inhibition at 20 µM [4]: 53.3%

CCOc1cc(/C=N\NC(=O)COc2ccc(C(C)C)cc2)ccc1O [IPK 000 138 40]
inhibition at 20 µM [3]: 86.4%
inhibition at 20 µM [4]: 75%

CC(C)c1ccc(OCC(=O)N/N=C\c2ccccc2OCC(=O)O)cc1 [IPK 000 138 43]
inhibition at 20 µM [3]: 78.9%
inhibition at 20 µM [4]: 76.3%

C/C(=N\NC(=O)c1ccccc1)c1ccc2ccccc2c1 [IPK 000 139 17]
inhibition at 20 µM [3]: 65.8%
inhibition at 20 µM [4]: 72.9%

NNC(=O)c1ccc(COc2ccc(Cl)cc2Cl)o1 [IPK 000 140 81]
inhibition at 20 µM [3]: 91.8%
inhibition at 20 µM [4]: 94.6%

NNC(=O)c1ccc(COc2ccc(Cl)cc2)o1 [IPK 000 140 87]
inhibition at 20 µM [3]: 91.1%
inhibition at 20 µM [4]: 92.2%

O=C(Nc1nccs1)c1ccc(COc2ccc(F)cc2)o1 [IPK 000 141 08]
inhibition at 20 µM [3]: 84%
inhibition at 20 µM [4]: 67.5%
